Measurements: publication PMC12717099, “Peptidoglycan recruitment by a penicillin binding protein” (Nature Communications, 2025)

Assays:
Format in all cases: cell-based, Enterococcus faecium
[1] = test system: E. faecium D344SRF pCWR624Δpbp5_pbp5_V3; assay: Disk diffusion assay, pbp5_V3; conditions: strain pbp5_V3 (loop 625-631); 37 °C, 24 h; n=3
Procedure: (§1) The synthetic genes were purchased from GeneWiz (South Plainfield, NJ). The ribosome binding site sequence AGGAGG (Shine-Dalgarno), and a string of five A’s followed by the sequence […], that corresponds to the first 15 bp found in pbp5 from E. faecium C68 were added upstream of the START codon. The terminator sequence […] was added downstream of the STOP codon. BamHI restriction sites were added to the flanking 5′ and 3′ ends. The synthetic genes were inserted into the vector pCWR624Δpbp5. This vector was derived from pCWR624[10], in which the pbp5 gene from D366 was excised by digestion with BamHI followed by re-ligation of the vector, allowing subsequent insertion of modified synthetic pbp5s into the BamHI site downstream of ftsWEfm and psr from E. faecium C68[10]. The synthetic genes were inserted in a BamHI site located downstream of psr. The proper orientation was confirmed by PCR amplification using the forward primer OR_pbp5_FOR_1 (5′-[…]-3′) and the reverse primer OR_pbp5_REV_1 (5′-[…]-3′). Plasmids were sequence verified for the specific binding site mutations. The resulting constructions were electroporated into the natural pbp5(-) mutant E. faecium D344SRF with a selection on brain heart infusion agar (BHI) plates containing kanamycin (1500 µg/ml).
(§2) E. faecium strains were streaked fresh from −80 °C stored glycerol stocks onto brain heart infusion (BHI) agar plates and incubated for 18 h at 37 °C. Strains harboring the plasmid derivatives were grown under antibiotic pressure on agar plates containing kanamycin at 1500 µg/ml. A single colony was inoculated into BHI or BHI-kanamycin (1500 µg/ml) for overnight cultures (18 h).
(§3) Antibiotic disks used were manufactured by BD BBL^TM. Disk diffusion assays were performed according to the Clinical and Laboratory Standards Institute (CLSI) guidance. Overnight cultures were inoculated into 3 ml of BHI or BHI-kanamycin (1500 µg/ml) broth with a dilution of 1:100 and incubated until an OD600 of ~0.5 was reached. […] The plates were incubated at 37 °C and the zones of inhibition were measured after 24 h. […]

[2] = test system: E. faecium D344SRF pCWR624Δpbp5_pbp5_V3; assay: MIC by broth microdilution, pbp5_V3; conditions: strain pbp5_V3 (loop 625-631); 37 °C, 20 h; n=3
Procedure: as §1, §2
(§4) MIC determination was performed using a standard broth microdilution technique in duplicate from independent cultures. Overnight cultures were inoculated into 3 ml of BHI or BHI-kanamycin (1500 µg/ml) broth in a dilution of 1:100 and incubated until an OD600 of ~0.5 was reached. Cultures were diluted 1:1000 and inoculated into the 96-well plates with the corresponding antibiotics to be tested. Plates were incubated at 37 °C for 20 h and read by eye. […]

[3] = test system: E. faecium D344SRF, Wild Type; conditions: strain Wild Type; disks Ampicillin 10 μg, Penicillin 10 U, Ceftriaxone 30 μg; BHI agar, 37 °C, 24 h; n=3
Procedure: as §2
Antibiotic disks used were manufactured by BD BBL^TM. Disk diffusion assays were performed according to the Clinical and Laboratory Standards Institute (CLSI) guidance. Overnight cultures were inoculated into 3 ml of BHI or BHI-kanamycin (1500 µg/ml) broth with a dilution of 1:100 and incubated until an OD600 of ~0.5 was reached. The OD600 was adjusted to 0.01 to get the inoculum suspension. […] The plates were incubated at 37 °C and the zones of inhibition were measured after 24 h. All experiments were conducted in triplicate.

[4] = test system: E. faecium D344SRF pCWR624Δpbp5_pbp5_V1; assay: Disk diffusion assay, pbp5_V1; conditions: strain pbp5_V1 (N523A); 37 °C, 24 h; n=3
Procedure: as §1, §2, §3

[5] = test system: E. faecium D344SRF pCWR624Δpbp5_pbp5_V1; assay: MIC by broth microdilution, pbp5_V1; conditions: strain pbp5_V1 (N523A); 37 °C, 20 h; n=3
Procedure: as §1, §2, §4

[6] = test system: E. faecium D344SRF, Wild Type; assay: MIC by broth microdilution, Wild Type; conditions: strain Wild Type; BHI broth microdilution, 37 °C, 20 h, read by eye; n=3
Procedure: as §2
MIC determination was performed using a standard broth microdilution technique in duplicate from independent cultures. Overnight cultures were inoculated into 3 ml of BHI or BHI-kanamycin (1500 µg/ml) broth in a dilution of 1:100 and incubated until an OD600 of ~0.5 was reached. Cultures were diluted 1:1000 and inoculated into the 96-well plates with the corresponding antibiotics to be tested. Plates were incubated at 37 °C for 20 h and read by eye. The MICs were defined as the lowest antibiotic concentration that inhibited growth.

[7] = test system: E. faecium D344SRF pCWR624Δpbp5 (empty plasmid); assay: MIC by broth microdilution, pCWR624Δpbp5; conditions: strain pCWR624Δpbp5; 37 °C, 20 h; n=3
Procedure: as §1, §2, §4

[8] = test system: E. faecium D344SRF pCWR624Δpbp5_pbp5_V5; assay: Disk diffusion assay, pbp5_V5; conditions: strain pbp5_V5 (Q396A_E397A); 37 °C, 24 h; n=3
Procedure: as §1, §2, §3

[9] = test system: E. faecium D344SRF pCWR624Δpbp5_pbp5_V6; assay: Disk diffusion assay, pbp5_V6; conditions: strain pbp5_V6 (E284A_E291A_S294A_N295A); 37 °C, 24 h; n=3
Procedure: as §1, §2, §3

[10] = test system: E. faecium D344SRF pCWR624 (PBP5 plasmid); assay: Disk diffusion assay, pCWR624; conditions: strain pCWR624; 37 °C, 24 h; n=3
Procedure: as §1, §2, §3

[11] = test system: E. faecium D344SRF pCWR624 (PBP5 plasmid); assay: MIC by broth microdilution, pCWR624; conditions: strain pCWR624; 37 °C, 20 h; n=3
Procedure: as §1, §2, §4

[12] = test system: E. faecium D344SRF pCWR624Δpbp5_pbp5_V2; assay: Disk diffusion assay, pbp5_V2; conditions: strain pbp5_V2 (N523A_Q627A); 37 °C, 24 h; n=3
Procedure: as §1, §2, §3

[13] = test system: E. faecium D344SRF pCWR624Δpbp5_pbp5_V5; assay: MIC by broth microdilution, pbp5_V5; conditions: strain pbp5_V5 (Q396A_E397A); 37 °C, 20 h; n=3
Procedure: as §1, §2, §4

[14] = test system: E. faecium D344SRF pCWR624Δpbp5_pbp5_V4; assay: Disk diffusion assay, pbp5_V4; conditions: strain pbp5_V4 (D530A_L533A_W457A); 37 °C, 24 h; n=3
Procedure: as §1, §2, §3

[15] = test system: E. faecium D344SRF pCWR624Δpbp5 (empty plasmid); assay: Disk diffusion assay, pCWR624Δpbp5; conditions: strain pCWR624Δpbp5; 37 °C, 24 h; n=3
Procedure: as §1, §2, §3

[16] = test system: E. faecium D344SRF pCWR624Δpbp5_pbp5_V6; assay: MIC by broth microdilution, pbp5_V6; conditions: strain pbp5_V6 (E284A_E291A_S294A_N295A); 37 °C, 20 h; n=3
Procedure: as §1, §2, §4

[17] = test system: E. faecium D344SRF pCWR624Δpbp5_pbp5_V4; assay: MIC by broth microdilution, pbp5_V4; conditions: strain pbp5_V4 (D530A_L533A_W457A); 37 °C, 20 h; n=3
Procedure: as §1, with “The resulting constructions were electroporated into the natural pbp5(-) mutant E. faecium D344SRF with a selection on brain heart infusion agar (BHI) plates containing kanamycin (1500 µg/ml).” left out
MIC determination was performed using a standard broth microdilution technique in duplicate from independent cultures. […] Plates were incubated at 37 °C for 20 h and read by eye. […]

[18] = test system: E. faecium D344SRF pCWR624Δpbp5_pbp5_V2; assay: MIC by broth microdilution, pbp5_V2; conditions: strain pbp5_V2 (N523A_Q627A); 37 °C, 20 h; n=3
Procedure: as §2

SMILES	Zone Size (mm) [Range] [1]	MIC (µg/ml) [Range] [2]	Zone Size (mm) [Range] [3]	Zone Size (mm) [Range] [4]	MIC (µg/ml) [Range] [5]	MIC (µg/ml) [Range] [6]	MIC (µg/ml) [Range] [7]	Zone Size (mm) [Range] [8]	Zone Size (mm) [Range] [9]	Zone Size (mm) [Range] [10]	MIC (µg/ml) [Range] [11]	Zone Size (mm) [Range] [12]	MIC (µg/ml) [Range] [13]	Zone Size (mm) [Range] [14]	Zone Size (mm) [Range] [15]	MIC (µg/ml) [Range] [16]	MIC (µg/ml) [Range] [17]	MIC (µg/ml) [Range] [18]
CC1(C)S[C@@H]2[C@H](NC(=O)[C@H](N)c3ccccc3)C(=O)N2[C@H]1C(=O)O [Ampicillin]	32 [30-32] mm	< 0.19 [<0.19-0.39] µg/ml	32 [30-32] mm	16 [14-16] mm	100 [50-100] µg/ml	0.39 [0.39-0.78] µg/ml	0.78 [0.39-1.56] µg/ml	0 [0-10] mm	0 [0-10] mm	0 [0] mm	100 [100->200] µg/ml	26 [26-28] mm	100 [100] µg/ml	32 [32] mm	30 [30-32] mm	100 [100] µg/ml	–	–
CC1(C)S[C@@H]2[C@H](NC(=O)Cc3ccccc3)C(=O)N2[C@H]1C(=O)O [Penicillin, penicillin G]	32 [30-32] mm	0.39 [0.39] µg/ml	28 [28-32] mm	0 [0] mm	200 [200] µg/ml	0.39 [0.39-0.78] µg/ml	0.39 [0.39-1.56] µg/ml	0 [0] mm	0 [0] mm	0 [0] mm	> 200 [>200] µg/ml	26 [26-28] mm	200 [200] µg/ml	32 [30-32] mm	28 [28-32] mm	200 [200] µg/ml	0.39 [0.39] µg/ml	12.5 [12.5-25] µg/ml
